Assay results reported in US11034719B2, “7-dehydrocholesterol derivatives and methods using same” (University of Rochester, priority 2014, dated 2021).

How the values were obtained:
ECC-1 cells = assay: MTS cell viability assay, ECC-1; format: cell-based; settings: FIG. 3
Method: ECC-1 cells were seeded (10,000 cells/well) in complete RPMI (supplemented with 10% fetal bovine serum and 1% antibiotic) and allowed to adhere over night. Media was replaced with a fresh complete RPMI media containing varying concentrations of Compound (3). DMSO was used as control. At suitable intervals (varying from 1 minute to 4 days), the media was replaced again with complete RPMI (supplemented with 10% fetal bovine serum and 1% antibiotic) containing MTS dye (Invitrogen Inc) and incubated for period (varying from 10 min to 1 day). The absorbance of the media was read at varying wavelengths, advantageously at […] in an ELISA reader.
(§1) Viability of cell lines (ECC-1, AN3CA, RL-95-2, SKOV-3, PC-3, MCF-7, SMSKCNR and TCL-1) before and after MeTC7 treatment was determined by the CellTiter 96® AQueous One Solution Assay (Promega Corp, Madison, Wisc.) following the manufacturer's recommendations. This colorimetric assay is based on the ability of mitochondria to reduce a substrate [MTS, 3-(4,5-dimethylthiazol-2-yl)-5-(3-carboxymethoxy phenyl)-2-(4-sulfophenyl)-2H-tetrazolium] into a soluble formazan product quantified by measuring the absorbance at 490 nm. The resulting OD is directly proportional to the number of living cells. […] The samples were incubated for an additional 4 h before absorbance was measured at 490 nm in an ELISA plate reader (Thermo Labsystems, Waltham, Mass.). […]

SKOV-3 cells [1] = assay: MTS cell viability assay, SKOV-3; format: cell-based; settings: FIG. 1 / FIG. 2
Method: SKOV-3 cells were seeded (5,000 cells/well) in complete DMEM (supplemented with 10% fetal bovine serum and 1% antibiotic) and allowed to adhere overnight. Media was replaced with a fresh complete DMEM media containing varying concentrations of the drugs of interest. DMSO was used as control. At a suitable interval (varying from 1 minute to 4 days), the media was replaced again with complete RPMI (supplemented with 10% fetal bovine serum and 1% antibiotic) containing MTS dye (Invitrogen Inc.) and incubated for a period varying from 10 minutes to 1 day. The absorbance of the media was read at varying wavelengths, advantageously at […] in an ELISA reader.
as §1, with “nm.” for “nm. The resulting OD is directly proportional to the number of living cells.”

SKOV-3 cells [2] = assay: inhibition of lipid synthesis in SKOV-3 cells (HPLC of extracted lipids); format: cell-based; settings: 500 nM, serum free
Method: Approximately 3 million cells in serum free conditions were treated with Compound (3) (500 nM). Media was removed, and cells were washed with PBST, trypisinized and collected after centrifugation at 1,000 rpm. The cell pellet was washed with PBST and treated with methanolic HCl for 1 hour. The methanol was removed, and cells were suspended in water and extracted with chloroform. The collected chloroform layer was evaporated with a gentle nitrogen stream, and the residue was analyzed by HPLC.

SKOV-3 tumor xenographs = assay: SKOV-3 tumor xenograft in nude mice; format: in vivo
Method: The effects of exemplary compounds of the invention on the growth of SKOV-3 tumor xenographs in nude mice were investigated. Substantively, four- to six week-old immunodeficient nude mice (NU/NU; strain code 088/homozygous) (Charles River Laboratories, Wilmington, Mass.) were maintained at a temperature of 22±1° C. and a relative humidity of 55±5%, with a 12 h light/dark cycle. SKOV-3 cells were cultured to 80% confluence, washed in PBS twice, harvested by hypsination, pooled in complete medium, washed in PBS twice, and 2×10^6 cells/inoculate were suspended in 0.1 ml of matrigel and inoculated subcutaneously in the flank of mice. Mice with developing tumors after two weeks were randomly assigned to experimental groups. Compound (3) was prepared as a stock solution of 1 mM in 100% EtOH and diluted 1:40 in PBS for administration. […] Mice were weighed and tumor size caculated using a caliper every 5 days.
Four to six week-old immunodeficient nude mice (NU/NU; strain code 088/homozygous) (Charles River Laboratories, Wilmington, Mass.) were maintained at a temperature of −22° C. and a relative humidity of ˜55%, with a 12 h light/dark cycle. […]

[3] = tested on: panel of cancer cell lines; assay: ascorbic acid pretreatment, MTS viability in a panel of cancer cell lines; format: cell-based; settings: ascorbic acid pretreatment 3 hours
Method: Cell lines derived from ovarian cancer, endometrial cancer, breast cancer, prostate cancer and neuroblastoma (5,000 cells/well) were seeded in complete DMEM (supplemented with 10% fetal bovine serum and 1% antibiotic) and allowed to adhere over night. Cells were pretreated with […] of acrorbic acid in 50 μL DMEM media for 3 hours. To the existing media was added DMEM media containing varying concentrations of 2× concentration of Compound (3). DMSO was used as control. At suitable intervals (varying from 1 minute to 4 days), the media was replaced again with complete RPMI (supplemented with 10% fetal bovine serum and 1% antibiotic) containing MTS dye (Invitrogen Inc) and incubated for period (varying from 10 min to 1 day). The absorbance of the media was read at varying wavelengths, advantageously at 492 nm, in an ELISA reader.

HUVEC cells = assay: wound healing (scratch) assay with HUVEC cells; format: cell-based; settings: 500 nMoles, 24 hours
Method: A 24-well plate was coated with 100 µL of sterile 1% gelatin solution per well. After gelatin coating was hardened, about 100,000 HUVEC cells were seeded per well and allowed to grow to 100% confluence in EBM-2 media. A […] tip was then used to create a vertical scratch wound down the center of each well, and cells were washed once with fresh EBM-2 media. Cell monolayers were then imaged at a 0 h time point using light microscopy on an inverted microscope under sterile conditions. Wound areas were imaged again using light microscopy, and areas were demarcated on representative images.
Floating cells were removed and media was replaced with HUVEC cell media supplemented with vehicle or Compound (3) (500 nMoles) and incubated for 24 hours. The cells were imaged using a pre-cooled inverted NICON microscope (40×).

[4] = tested on: rat aorta rings (microcapillary formation); assay: ex vivo rat aorta ring assay; settings: 24 hour treatment, FIG. 9
Method: Rat aorta were harvested from the freshly euthanized naïve rats, cleaned and cut into fine rings and placed on matrigel beds prepared 30 min earlier in a 6 well plate. […] The media was replaced with fresh supplemented media and allowed the incubation for next 48 hours, thus affording a strong network of the microcappilary network. […] The phase contrast images were recorded on a pre-cooled inverted NICON microscope.

[5] = tested on: SKOV-3 and OVCAR-8 ovarian cancer cells; assay: apoptosis detection (TUNEL, cytochrome-C release) in ovarian cancer cells; format: cell-based
Method: SKOV -3 and OVCAR-8 ovarian cancer cells (10,000 per well) were seeded in a 8 well slide chamber in DMEM complete media and allowed to incubate overnight. Cells were treated with complete media containing either vehicle or MeTC7 (500 nM) and incubated for 12 hours in a humidified incubator maintained at standard conditions. DNA fragmentation was detected using the DeadEndTM Fluorometric TUNEL System assay (Promega, Madison, Wisc.) according to the manufacturer's recommendations. Fluorescence of apoptotic cells (green; labeling of DNA nicks by fluorescein-12-dUTP) and of chromatin (red; staining of chromatin with propidium iodide) was detected by fluorescence microscopy with an inverted microscope (Nikon Eclipse TE2000-E) and a 10× objective. Four randomly chosen microscopic fields were captured. For the detection of the cytochrome-C release as a marker of the apoptosis, the cells were fixed in 5% cold formalin solution and cells were stained with cytochrome-C primary antibody (Santa Cruz Biotechnology, USA) and corresponding fluroescence linked secondary antibody. The images were recorded using an inverted microscope. At least five field were arbitrarily scoped.

[6] = tested on: various cancer cell lines; assay: viability of a panel of cancer cell lines (CellTiter 96 MTS); format: cell-based; settings: FIGS. 11A-11C
Method: Viability of cell lines (ECC-1, AN3CA, RL-95-2, SKOV-3, PC-3, MCF-7, SMSKCNR and TCL-1) before and after MeTC7 treatment was determined by the CellTiter 96® AQueous One Solution Assay (Promega Corp, Madison, Wisc.) following the manufacturer's recommendations. This colorimetric assay is based on the ability of mitochondria to reduce a substrate [MTS, 3-(4,5-dimethylthiazol-2-yl)-5-(3-carboxymethoxy phenyl)-2-(4-sulfophenyl)-2H-tetrazolium] into a soluble formazan product quantified by measuring the absorbance at 490 nm. The resulting OD is directly proportional to the number of living cells. Briefly, cells (5×10^3/well) were plated into 96 well flat bottom plates (Corning, Inc., Coming, N.Y.) before treatment with various drugs or vehicle (DMSO) as indicated. Following incubation at 37° C. in a cell culture incubator for 20 h MTS reagent was added at a 1:10 dilution to the medium. The samples were incubated for an additional 4 h before absorbance was measured at 490 nm in an ELISA plate reader (Thermo Labsystems, Waltham, Mass.). Experiments were performed in triplicates; data are expressed as the mean of the triplicate determinations (X±SD) of a representative experiment in % of absorbance by samples with untreated cells [=100%]. Similarly, the cell viability of HEPG2 and HEK293 cells was determined except that the drug concentrations were used in the logarithmic values.

DAOY cells xenograft = assay: medulloblastoma (DAOY) xenograft in nude mice; format: in vivo; settings: 10 mg/kg bwt i.p., 5× week, 15 days
Method: Animal experiments were carried out in the animal facilities of Rhode Island Hospital (RIH), Rhode Island, USA with strict adherence to the guidelines of the Animal Welfare Committee of Rhode Island Hospital (RIH) and Women and Infants Hospital of Rhode Island (Laboratory Animal Protection Approval: A3922-01). Four to six week-old immunodeficient nude mice (NU/NU; strain code 088/homozygous) (Charles River Laboratories, Wilmington, Mass.) were maintained at a temperature of ˜22° C. and a relative humidity of ˜55%, with a 12 h light/dark cycle. DAOY cells were cultured to 80% confluence, washed in PBS twice, harvested by trypsination, pooled in complete medium, washed in PBS twice, and 1×10^6 cells/inoculate were suspended in 0.1 ml of matrigel and inoculated subcutaneously in the flank of mice. Mice with developing tumors after two weeks were randomly assigned to experimental groups. Mice were treated intraperitoneally every day with either vehicle control (control group; 6 animals) or MeTC7 (n=5, 10 mg/kg bwt, 5× week) for 15 days. Mice were weighed and tumor size were measured using a digital caliper every 5th days.

A2058 cells xenograft = assay: melanoma (A2058) xenograft in nude mice; format: in vivo; settings: 10 mg/kg bwt i.p., 5× week, 15 days
Method: Animal experiments were carried out in the animal facilities of Rhode Island Hospital (RIH), Rhode Island, USA with strict adherence to the guidelines of the Animal Welfare Committee of Rhode Island Hospital (RIH) and Women and Infants Hospital of Rhode Island (Laboratory Animal Protection Approval: A3922-01). Four to six week-old immunodeficient nude mice (NU/ NU; strain code 088/homozygous) (Charles River Laboratories, Wilmington, Mass.) were maintained at a temperature of ˜22° C. and a relative humidity of ˜55%, with a 12 h light/dark cycle. A2058 cells were cultured to 80% confluence, washed in PBS twice, harvested by trypsination, pooled in complete medium, washed in PBS twice, and 1×10^6 cells/inoculate were suspended in 0.1 ml of matrigel and inoculated subcutaneously in the flank of mice. Mice with developing tumors after two weeks were randomly assigned to experimental groups. Mice were treated intraperitoneally every day with either vehicle control (control group; 7 animals) or MeTC7 (10 mg/kg bwt, 5× week) for 15 days. Mice were weighed and tumor size were measured using a digital caliper every 5th days. The percent of animals with tumor size less than 15 mm was calculated by Kaplan-Meier Analysis.

VDR-LBD = molecular target: T1, VDR-LBD (Homo sapiens, UniProt P11473)
T1 sequence (P11473 127-423 limits assumed): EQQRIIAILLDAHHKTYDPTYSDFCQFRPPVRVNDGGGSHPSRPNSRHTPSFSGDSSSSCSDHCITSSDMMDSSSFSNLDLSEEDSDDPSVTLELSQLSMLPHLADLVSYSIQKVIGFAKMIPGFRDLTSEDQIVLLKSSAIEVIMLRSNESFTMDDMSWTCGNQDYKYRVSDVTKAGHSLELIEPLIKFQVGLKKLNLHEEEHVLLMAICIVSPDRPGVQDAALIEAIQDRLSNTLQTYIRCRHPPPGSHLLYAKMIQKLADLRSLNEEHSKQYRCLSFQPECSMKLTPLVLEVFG
Excerpt: VDR antagonists disrupt this interaction by a direct or allosteric mode of inhibition.

CC(C)CCC[C@@H](C)[C@H]1CC[C@H]2C34C=CC5(C[C@@H](OC(=O)CBr)CC[C@]5(C)[C@H]3CC[C@]12C)n1c(=O)n(C)c(=O)n14 (stereo partly shown) [Compound (3)]
cell viability of ECC-1 cells (ECC-1 cells): reduction in cell viability | cell viability of SKOV-3 cells (SKOV-3 cells [1]): reduction in cell viability | lipids appearing at 10.06 minutes (HPLC) (SKOV-3 cells [2]): significantly reduced | tumor burden (SKOV-3 tumor xenographs; 10 mg/kg bwt i.p. every other day, 40 days, FIG. 7): reduces the tumor burden | growth of ovarian cancer xenografts (SKOV-3 tumor xenographs; 10 mg/kg bwt i.p., 5× week, 31 days, FIG. 11F): reduce the growth of ovarian cancer xenografts in animals | cytotoxic effects after ascorbic acid pretreatment [3]: reduced the cytotoxic effects | recovery of the scratched area (HUVEC cells): failed to recover and repopulate the scratched area | capillary formation and outgrowth [4]: inhibited capillary formation and outgrowth | cytochrome-C release ([5]; 500 nM, 12 hours): abundant cytochrome-C release in the cytosol | apoptosis ([5]; FIGS. 11D-11E): cause apoptosis | growth of cancer cell lines [6]: block growth of various cancer cell lines | growth of medulloblastoma xenografts (DAOY cells xenograft): reduce the growth of medulloblastoma xenografts in animals | growth of BRAF mutant melanoma xenografts (A2058 cells xenograft): reduce the growth of BRAF mutant melanoma xenografts in animals | survival of animals with melanoma xenografts (A2058 cells xenograft; Kaplan-Meier): extend survival in these animals | VDR antagonism, selectivity (VDR-LBD; FIGS. 10A-10F): selective Vitamin D nuclear receptor (VDR) antagonists | VDR agonism (coactivator recruitment) (VDR-LBD; in the absence of calcitriol): not a VDR agonist
